Target: T1, hKv3.1b (Homo sapiens, UniProt P48547)
T1 construct: expressed in transfected cells
T1 sequence (P48547 1-585 isoform P48547-2): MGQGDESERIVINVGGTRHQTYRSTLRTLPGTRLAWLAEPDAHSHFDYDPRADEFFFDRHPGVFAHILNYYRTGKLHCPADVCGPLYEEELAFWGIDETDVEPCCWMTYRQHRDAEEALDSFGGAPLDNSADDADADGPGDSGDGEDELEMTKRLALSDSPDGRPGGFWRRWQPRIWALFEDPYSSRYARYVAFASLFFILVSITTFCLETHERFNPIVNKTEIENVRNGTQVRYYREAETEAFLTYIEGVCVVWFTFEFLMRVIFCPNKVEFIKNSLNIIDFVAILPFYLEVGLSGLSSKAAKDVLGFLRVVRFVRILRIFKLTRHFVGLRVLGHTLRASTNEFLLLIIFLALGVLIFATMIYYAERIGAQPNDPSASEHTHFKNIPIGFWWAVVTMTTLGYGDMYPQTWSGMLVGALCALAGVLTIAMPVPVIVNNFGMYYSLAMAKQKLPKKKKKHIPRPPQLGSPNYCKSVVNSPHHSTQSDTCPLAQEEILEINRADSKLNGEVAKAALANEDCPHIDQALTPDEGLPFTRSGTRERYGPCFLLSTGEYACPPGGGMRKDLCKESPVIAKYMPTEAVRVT
Assay: Automated patch clamp (QPatch-16x) on HEK-293 cells stably expressing hKv3.1b
Assay type: cell-based
Conditions: for ECdelta5 mV: concentration needed to shift the activation threshold 5 mV; for Threshold Shift: maximum absolute hyperpolarizing shift of activation threshold at tested concentrations 0.37-30 μM
Description: HEK-293 cells stably expressing hKv3.1b were used for the experiments. Cells were cultured in DMEM medium supplemented with 10% Fetal Bovine Serum, 100 ug/mL Geneticidin and 100 u/mL Penicillin/Streptomycin (all from Gibco). Cells were grown to 80-90% confluency at 37° C. and 5% CO2. On the day of the experiment the cells were detached from the tissue culture flasks by Detachin, resuspended in serum free medium containing 25 mM HEPES and transferred to the cell hotel of the QPatch. The cells were used for experiments 0-5 hours after detachment.
Patch-clamp recordings were performed using the automated recording system QPatch-16x (Sophion Bioscience, Denmark). Cells were centrifuged, SFM removed and the cells were resuspended in extracellular buffer containing (in mM): 145 NaCl, 4 KCl, 1 MgCl2, 2 CaCl2, 10 HEPES and 10 glucose (added fresh on the day of experiment); pH 7.4 adjusted with NaOH, 305 mOsm adjusted with sucrose.
Single cell whole-cell recordings were carried out using an intracellular solution containing (in mM): 120 KCl, 32.25/10 KOH/EGTA, 5.374 CaCl2, 1.75 MgCl2, 10 HEPES, 4 Na2ATP (added fresh on the day), pH 7.2 adjusted with KOH, […] adjusted with sucrose. Cell membrane potentials were held at −80 mV and currents were evoked by voltage steps (200 ms duration) from −70 mV to +10 mV (in 10 mV increments). Vehicle (0.33% DMSO) or increasing concentration of compound (I) were applied and the voltage protocol was run 3 times (resulting in 3 min cpd incubation time). Five increasing concentrations of compound (I) were applied to each cell.
Leak subtraction protocol was applied at −33% of the sweep amplitude, and serial resistance values were constantly monitored.
Any cell where serial resistance exceeded 25 MOhm, membrane resistance less than 200 MOhm or current size at −10 mV less than 200 pA was eliminated from the subsequent analysis.
Data analysis was performed using Sophion's QPatch assay software in combination with Microsoft Excel™ (Redmond, Wash., USA). Current voltage relationships were plotted from the peak current at the individual voltage steps normalized to the vehicle addition at 10 mV. The voltage threshold for channel activation was defined as 5% activation of the peak current at 10 mV in presence of vehicle. The activity of the compounds was described as the ability to shift this current voltage relationship to more hyperpolarized potentials and is given as the maximum absolute shift possible at the tested concentrations (0.37, 1.11, 3.33, 10, 30 μM). Concentration response curves were plotted from the threshold shift at the individual concentrations and were fitted excel fit model 205 sigmoidal dose-response model (fit=A+((B−A)/1+((C/x)^D)))), where A is the minimum value, B the maximum value, C the EC50 value and D the slope of the curve. The concentration needed to shift the threshold 5 mV was readout from this curve (ECdelta5 mV).

| SMILES | ECdelta5 mV | Threshold Shift |
| --- | --- | --- |
| Cc1noc(CNC(=O)c2ccn(S(=O)(=O)c3ccc(F)cc3)c2)n1 [Compound 65, 1-(4-fluorobenzene-1-sulfonyl)-N-[(3-methyl-1,2,4-oxadiazol-5-yl)methyl]-1H-pyrrole-3-carboxamide] | 4200 nM | 14 mV |
| COc1ccc(S(=O)(=O)n2ccc(C(=O)NCc3ccc(C)cn3)c2)cc1 [Compound 70, 1-(4-methoxybenzene-1-sulfonyl)-N-[(5-methylpyridin-2-yl)methyl]-1H-pyrrole-3-carboxamide] | 1100 nM | 17 mV |
| COc1ccc(S(=O)(=O)n2ccc(C(=O)NCc3ncc(C)cn3)c2)cc1 [Compound 72, 1-(4-methoxybenzene-1-sulfonyl)-N-[(5-methylpyrimidin-2-yl)methyl]-1H-pyrrole-3-carboxamide] | 2800 nM | 20 mV |
| COc1ccc(S(=O)(=O)n2ccc(C(=O)NCc3ncc(C)o3)c2)cc1 [Compound 73, 1-(4-methoxybenzene-1-sulfonyl)-N-[(5-methyl-1,3-oxazol-2-yl)methyl]-1H-pyrrole-3-carboxamide] | 2100 nM | 13 mV |
| Cc1noc(CNC(=O)c2ccn(S(=O)(=O)c3ccccc3C)c2)n1 [Compound 75, 1-(2-methylbenzene-1-sulfonyl)-N-[(3-methyl-1,2,4-oxadiazol-5-yl)methyl]-1H-pyrrole-3-carboxamide] | 3200 nM | 14 mV |
| Cc1ccc(CNC(=O)c2ccn(S(=O)(=O)c3ccccc3C)c2)nc1 [Compound 77, 1-(2-methylbenzene-1-sulfonyl)-N-[(5-methylpyridin-2-yl)methyl]-1H-pyrrole-3-carboxamide] | 3300 nM | 12 mV |
| Cc1cc(CNC(=O)c2ccn(S(=O)(=O)c3ccccc3C)c2)on1 [Compound 78, 1-(2-methylbenzene-1-sulfonyl)-N-[(3-methyl-1,2-oxazol-5-yl)methyl]-1H-pyrrole-3-carboxamide] | 1900 nM | 17 mV |
| Cc1cnc(CNC(=O)c2ccn(S(=O)(=O)c3ccccc3C)c2)o1 [Compound 80, 1-(2-methylbenzene-1-sulfonyl)-N-[(5-methyl-1,3-oxazol-2-yl)methyl]-1H-pyrrole-3-carboxamide] | 2800 nM | 12 mV |
| O=C(NCc1cnccn1)c1ccn(S(=O)(=O)c2ccc(Cl)cc2)c1 [Compound 81, 1-(4-chlorobenzene-1-sulfonyl)-N-[(pyrazin-2-yl)methyl]-1H-pyrrole-3-carboxamide] | 1000 nM | 28 mV |
| Cc1ccc(CNC(=O)c2ccn(S(=O)(=O)c3ccccc3)c2)nc1 [Compound 83, 1-(benzenesulfonyl)-N-[(5-methylpyridin-2-yl)methyl]-1H-pyrrole-3-carboxamide] | 5000 nM | 13 mV |
| Cc1cc(CNC(=O)c2ccn(S(=O)(=O)c3ccccc3)c2)on1 [Compound 84, 1-(benzenesulfonyl)-N-[(3-methyl-1,2-oxazol-5-yl)methyl]-1H-pyrrole-3-carboxamide] | 4600 nM | 12 mV |
| Cc1ccc(CNC(=O)c2ccn(S(=O)(=O)c3ccc(F)cc3)c2)cn1 [Compound 85, 1-(4-fluorobenzene-1-sulfonyl)-N-[(6-methylpyridin-3-yl)methyl]-1H-pyrrole-3-carboxamide] | 3100 nM | 18 mV |
| Cc1ccc(S(=O)(=O)n2ccc(C(=O)NCc3cnc(C)cn3)c2F)cc1 [Compound 88, 2-fluoro-1-(4-methylbenzene-1-sulfonyl)-N-[(5-methylpyrazin-2-yl)methyl]-1H-pyrrole-3-carboxamide] | 2000 nM | 23 mV |

Other lines, results leading:

| ECdelta5 mV | Threshold Shift | SMILES |
| --- | --- | --- |
| 4900 nM | 12 mV | Cc1cnc(CNC(=O)c2ccn(S(=O)(=O)c3cccc(C)c3)c2)nc1 [Compound 62, 1-(3-methylbenzene-1-sulfonyl)-N-[(5-methylpyrimidin-2-yl)methyl]-1H-pyrrole-3-carboxamide] |
| 2200 nM | 13 mV | Cn1ccc(CNC(=O)c2ccn(S(=O)(=O)c3ccc(F)cc3)c2)n1 [Compound 63, 1-(4-fluorobenzene-1-sulfonyl)-N-[(1-methyl-1H-pyrazol-3-yl)methyl]-1H-pyrrole-3-carboxamide] |
| 4400 nM | 13 mV | O=C(NCc1cnccn1)c1ccn(S(=O)(=O)c2ccc(F)cc2)c1 [Compound 64, 1-(4-fluorobenzene-1-sulfonyl)-N-[(pyrazin-2-yl)methyl]-1H-pyrrole-3-carboxamide] |
| 1400 nM | 18 mV | COc1ccc(S(=O)(=O)n2ccc(C(=O)NCc3ccn(C)n3)c2)cc1 [Compound 66, 1-(4-methoxybenzene-1-sulfonyl)-N-[(1-methyl-1H-pyrazol-3-yl)methyl]-1H-pyrrole-3-carboxamide] |
| 2200 nM | 23 mV | COc1ccc(S(=O)(=O)n2ccc(C(=O)NCc3cnccn3)c2)cc1 [Compound 67, 1-(4-methoxybenzene-1-sulfonyl)-N-[(pyrazin-2-yl)methyl]-1H-pyrrole-3-carboxamide] |
| 2300 nM | 21 mV | COc1ccc(S(=O)(=O)n2ccc(C(=O)NCc3nc(C)no3)c2)cc1 [Compound 68, 1-(4-methoxybenzene-1-sulfonyl)-N-[(3-methyl-1,2,4-oxadiazol-5-yl)methyl]-1H-pyrrole-3-carboxamide] |
| 3000 nM | 18 mV | COc1ccc(S(=O)(=O)n2ccc(C(=O)NCc3cnn(C)c3)c2)cc1 [Compound 69, 1-(4-methoxybenzene-1-sulfonyl)-N-[(1-methyl-1H-pyrazol-4-yl)methyl]-1H-pyrrole-3-carboxamide] |
| 1800 nM | 19 mV | COc1ccc(S(=O)(=O)n2ccc(C(=O)NCc3cc(C)no3)c2)cc1 [Compound 71, 1-(4-methoxybenzene-1-sulfonyl)-N-[(3-methyl-1,2-oxazol-5-yl)methyl]-1H-pyrrole-3-carboxamide] |
| 2100 nM | 21 mV | Cc1ccccc1S(=O)(=O)n1ccc(C(=O)NCc2ccn(C)n2)c1 [Compound 74, 1-(2-methylbenzene-1-sulfonyl)-N-[(1-methyl-1H-pyrazol-3-yl)methyl]-1H-pyrrole-3-carboxamide] |
| 3600 nM | 17 mV | Cc1ccccc1S(=O)(=O)n1ccc(C(=O)NCc2cnn(C)c2)c1 [Compound 76, 1-(2-methylbenzene-1-sulfonyl)-N-[(1-methyl-1H-pyrazol-4-yl)methyl]-1H-pyrrole-3-carboxamide] |
| 4100 nM | 14 mV | Cn1ccc(CNC(=O)c2ccn(S(=O)(=O)c3ccccc3)c2)n1 [Compound 82, 1-(benzenesulfonyl)-N-[(1-methyl-1H-pyrazol-3-yl)methyl]-1H-pyrrole-3-carboxamide] |
| 4000 nM | 15 mV | Cc1ccc(S(=O)(=O)n2cc(C(=O)NCc3cnc(C)cn3)cc2F)cc1 [Compound 87, 5-fluoro-1-(4-methylbenzene-1-sulfonyl)-N-[(5-methylpyrazin-2-yl)methyl]-1H-pyrrole-3-carboxamide] |

Reference: patent US20200131156A1, “ARYLSULFONYLPYROLECARBOXAMIDE DERIVATIVES AS Kv3 POTASSIUM CHANNEL ACTIVATORS” (H. Lundbeck A/S, priority 2018, published 2020)
